pIC50: −log10 of the molar value. Converted amounts (≈) assume the structure as drawn. Read-outs that look alike come from different tables or passages of the source.
Assays:
U87-sensitive = assay: Cell viability (SRB or MTT), TMZ-sensitive U87 subclone; type: cell-based; settings: 72 h, 72 hours post treatment
Experimental: (§1) The anti-proliferative activity of compound 2 was also assessed in matched TMZ susceptible (D54-S and U87-S) or resistant (D54-R and […]) cell lines (Hong Kong University, Dr Gilberto Leung). […] SRB tended to overestimate cytotoxicity compared to MTT.

U87-resistant = assay: Cell viability (SRB or MTT), TMZ-resistant U87 subclone; type: cell-based; settings: 72 h, 72 hours post treatment
Experimental: as §1

D54-sensitive = assay: Cell viability (SRB or MTT), TMZ-sensitive D54 subclone; type: cell-based; settings: 72 h, 72 hours post treatment
Experimental: as §1

D54-resistant = assay: Cell viability (SRB or MTT), TMZ-resistant D54 subclone; type: cell-based; settings: 72 h, 72 hours post treatment
Experimental: as §1

[1] = system: TMZ-resistant and sensitive subclones of U87 and D54; assay: Anti-proliferative activity across matched TMZ susceptible and resistant GBM cell lines; type: cell-based
Experimental: as §1

OCSC1 = assay: Ovarian cancer stem cell proliferation/cytotoxicity (Incucyte, CellTox), OCSC1; type: cell-based; settings: Homo sapiens; OCSC-1, duplicate experiments; read-out: concentrations retarding proliferation of ovarian cancer stem cells
Experimental: The ability of compounds 1 to 14 to inhibit the proliferation of ovarian cancer stem cells was established from patient-derived explants. The laboratory of Dr Gil Mor (Yale University) have identified two types of epithelial ovarian cancer cells: Type I are chemoresistant, CD44+ve epithelial ovarian cancer (EOC) cells and Type II are chemosensitive CD44−ve EOC cells. Ovarian cancer stem cells were prepared as described previously (Alvero et al., 2009). Cell proliferation was assessed using the Incucyte Kinetic Imaging System. The cytotoxic effect of the compounds was assessed concurrently using the CellPlayer cytotoxicity assay using CellTox™ (Promega, Cat#: G8731). Monolayer cells were trypsinised and plated in 96-well plates. After 24 hrs, once the cells have attached, treatment was dispensed in RPMI with 10% FBS. Drug concentrations used were: 0.001, 0.01, 0.1, 1, and 10 μg/ml. An appropriate dilution of CellTox™ reagent (1:1000) was added to each well after adding the test compound. Culture plates were immediately placed in the Incucyte system and imaged every 2 hrs using the “Fluorescence and Phase contrast” option on the Incucyte equipment. Growth curves were calculated as a measure of cell confluence using an integrated confluence algorithm as a surrogate for cell number to determine proliferation rate. The area under the curve calculated from the plot of CsttTox Count/mm^2 over time was then used to calculate the IC50. […] Compounds 6, 9 and 13 were also potent at inhibiting the proliferation of OCSC-2 cells at concentrations […] (Table 4). Compound 2 also elicited a similar effect against F2 cells at log-fold higher concentrations (0.1-1 μg/ml).

F2 = assay: Ovarian cancer stem cell proliferation/cytotoxicity (Incucyte, CellTox), F2; type: cell-based; settings: Homo sapiens
Experimental: The ability of compounds 1 to 14 to inhibit the proliferation of ovarian cancer stem cells was established from patient-derived explants. The laboratory of Dr Gil Mor (Yale University) have identified two types of epithelial ovarian cancer cells: Type I are chemoresistant, CD44+ve epithelial ovarian cancer (EOC) cells and Type II are chemosensitive CD44−ve EOC cells. Ovarian cancer stem cells were prepared as described previously (Alvero et al., 2009). Cell proliferation was assessed using the Incucyte Kinetic Imaging System. The cytotoxic effect of the compounds was assessed concurrently using the CellPlayer cytotoxicity assay using CellTox™ (Promega, Cat#: G8731). Monolayer cells were trypsinised and plated in 96-well plates. After 24 hrs, once the cells have attached, treatment was dispensed in RPMI with 10% FBS. Drug concentrations used were: 0.001, 0.01, 0.1, 1, and 10 μg/ml. […] Culture plates were immediately placed in the Incucyte system and imaged every 2 hrs using the “Fluorescence and Phase contrast” option on the Incucyte equipment. Growth curves were calculated as a measure of cell confluence using an integrated confluence algorithm as a surrogate for cell number to determine proliferation rate. The area under the curve calculated from the plot of CsttTox Count/mm^2 over time was then used to calculate the IC50. […]

OCSC-2 cells = assay: OCSC-2 proliferation after removal of drug pressure (Incucyte confluence); type: cell-based, human; settings: pre-treated 24 hrs with 0.1, 1 and 10 μg/ml, washed, additional 48 hrs in medium without drug
Experimental: Given the concept that residual cancer progenitor cells within the tumour post-treatment are responsible for tumour relapse, a critical therapeutic strategy to prolong survival is to eradicate those tumour progenitor cells driving relapse. In vitro studies were conducted to determine whether compound 2 was able to inhibit OCSC proliferation once drug pressure was removed. […] Culture plates were immediately placed in the Incucyte system and imaged every 2 hrs. Growth curves were calculated as a measure of cell confluence using an integrated confluence algorithm as a surrogate for cell number to determine proliferation rate.

GFP-labeled OCSC2 = assay: Co-culture fluorescence microscopy, GFP-labeled OCSC2 stem cells; type: cell-based, human; settings: 1 μg/ml for 48 hrs, recovery 72 hrs
Experimental: (§2) GFP-labeled OCSC2 and mCherry-labeled OCC2 cells were established by infecting cells with lentivirus expressing the fluorescent proteins (Craveiro et al. 2013). Co-cultures of GFP+ OCSC2 and mCherry+ OCC2 were treated with 1 μg/ml of compound 2 for 48 hrs and allowed to recover for another 72 hrs. Fluorescence was determined by fluorescence microscopy.

mCherry-labeled OCC2 = assay: Co-culture fluorescence microscopy, mCherry-labeled OCC2 cells; type: cell-based, human; settings: 1 μg/ml for 48 hrs, recovery 72 hrs
Experimental: as §2

[2] = system: Ovarian cancer stem cell spheroids (OCSC-2); assay: Ovarian cancer stem cell spheroid integrity (microscopy); type: cell-based, human; settings: 24 hrs exposure
Experimental: FIG. 9: Compound 2 destroys ovarian cancer stem cell spheroids. OCSC-2 spheroids were established using standard methodology and exposed to increasing concentration of compound 2 over 24 hrs. A, Control; B. 0.1 μg/ml-24 hr; C, 1 μg/ml-24 hr Spheroid structure was assessed by microscopy.
Ovarian cancer stem cell spheroids were obtained from cultures grown under special conditions that selected for cells with self-renewing potential (Alvero et al., 2009). Briefly, CD44+ cells were incubated in a suspension system consisting of a glass tube in continuous rotation to prevent adherence These cells formed clusters in 48 hrs and compact spheroids in 4 days. Spheroids were then exposed to 0.1 and 1 μg/ml of compound 2 and examined microscopically after 24 hrs.

`COc1cc(C2COc3c(ccc(O)c3C)C2c2ccc(O)cc2)cc(OC)c1O` (racemic) [Compound 2, 3-(4-Hydroxy-3,5-dimethoxyphenyl)-4-(4-hydroxyphenyl)-8-methylchroman-7-ol] gave a pIC50 (U87-sensitive; MTT) of 6.48, a pIC50 (U87-sensitive; SRB) of 6.97 and a pIC50 (U87-resistant; MTT) of 6.45. For the same molecule, the pIC50 (U87-resistant; SRB) was 6.89, the pIC50 (D54-sensitive; MTT) was 6.57 and the pIC50 (D54-sensitive; SRB) was 7.05. The pIC50 (D54-resistant; MTT) was 6.67, the pIC50 (D54-resistant; SRB) was 7.04 and the “anti-proliferative activity against TMZ-resistant versus TMZ-sensitive subclones” value ([1]; U87 and D54) was “equipotent”. The pIC50 ([1]; U87 and D54, TMZ-resistant and sensitive subclones, SRB/MTT, read-out: IC50 values regardless of cell line and TMZ status) was over 6.44, the IC50 (OCSC1) was 0.01 to 0.1 µg/mL (≈ 0.0245 to 0.245 µM) and the IC50 (F2; F2, read-out: IC50 Range) was 0.1 to 1 µg/mL (≈ 0.245 to 2.45 µM). For the same molecule, the IC50 (F2; F2 cells, read-out: concentrations retarding proliferation) was 0.1 to 1 µg/mL (≈ 0.245 to 2.45 µM), the “growth after drug removal” value (OCSC-2 cells) was “failed to enter logarithmic growth” and the “GFP-labeled OCSC2 stem cell numbers” value (GFP-labeled OCSC2) was “markedly reduced”. For the same molecule, the “effect on mCherry-labeled OCC2 cells” value (mCherry-labeled OCC2) was “round up and lift off the culture surface”, the spheroid infrastructure ([2]; 0.1 μg/ml) was “had started to disintegrate” and the spheroid structure ([2]; 1 μg/ml) was “almost totally destroyed”.

— patent US9701655B2, “Functionalised benzopyran compounds and use thereof” (NOVOGEN LIMITED, priority 2014, dated 2017)
